Results taken from patent publication US11883407B2, “Medicament for the treatment of chronic cough” (Shionogi & Co., Ltd., priority 2018, dated 2024).
Where two headings read alike, the source gives them in different places.

Tests used:
[1] = test system: pulmonary vagal afferent C and A fibers; settings: cited from earlier work
[2] = cited from earlier work
[3] = human, in vivo; cited from earlier work
[4] = test system: nerve fibers of the ganglion inferius; settings: guinea pig lung tissue; cited from earlier work
[5] = Study MK-7264-012 (NCT02612610) of Gefapixant: taste-related adverse events; assay type: in vivo, human; settings: 50 mg; difference between treatment groups
Protocol: In addition, a large number of clinical trial protocols for AF-219 (MK-7264, Gefapixant) and their results are recorded on ClinicalTrials.gov. For example, the results of a trial in which 253 of the 367 candidate patients were randomly assigned to a twice daily oral administration group of a placebo, 7.5 mg, 20 mg or 50 mg of AF-219 to confirm the therapeutic effect after 12 weeks, have been published under the identification number NCT02612610. Among the trial results, it was published that as one of the adverse events, for example, dysgeusia was confirmed in each dose group: 9.52% (7.5 mg administration group, 6 out of 63 cases), 33.33% (20 mg administration group, 21 out of 63 cases) and 47.62% (50 mg administration group, 30 out of 63 cases). […]
Based on the above results, for the proportion of subjects who experienced any of the taste-related adverse events, the study design of each study was taken into account, and as the difference between each investigational drug and placebo, the mean of differences of incidence in the same subject between the treatments and the two-sided 95% confidence interval thereof were calculated for Test Example 6, and the difference of incidence between the Gefapixant 50 mg treatment group and the placebo treatment group and the two-sided 95% confidence interval thereof were calculated for the study MK-7264-012.

[6] = cited from earlier work; for dysgeusia as adverse event: 12 weeks
[7] = test system: patients with chronic cough; settings: cited from earlier work
[8] = 50 mg twice daily, 63 subjects in safety analysis

Compound: O=C(O)c1cc(C(=O)O)c(C(=O)N(Cc2cccc(Oc3ccccc3)c2)[C@H]2CCCc3ccccc32)cc1C(=O)O [Compound A-317491, (5-({3-phenoxybenzyl)[(1S)-1,2,3,4-tetrahydro-1-naphthalenyl]amino}carbonyl)-1,2,4-benzenetricarboxylic acid]
- activity of pulmonary vagal afferent C and A fibers by α,βmATP [1]: inhibits activity of the pulmonary vagal afferent C and A fibers

Compound: CNC(=O)c1cc(F)c(-c2nc3cc(C)ccn3c2C[C@H]2CN(C(=O)OC)CCO2)c(F)c1 [BLU-5937]
- taste changes, subjects ([2]; 100 mg (n=16)): 6.3%
- partial taste loss, subjects ([2]; 400 mg (n=16)): 6.25%
- taste changes, subjects ([2]; 400 mg (n=16)): 37.5%
- partial taste loss, subjects ([2]; 800 mg (n=8)): 12.5%
- taste changes, subjects ([2]; 800 mg (n=8)): 62.5%
- taste changes, subjects ([2]; 1200 mg (n=8)): 25%
- course of taste-related adverse events ([2]; single and repeated administration): all taste-related adverse events were transient and sporadic

Compound: Cc1cnc(-c2cc(O[C@@H]3CCOC3)cc(C(=O)N[C@H](C)c3cnc(C(F)(F)F)nc3)c2)s1 [BAY-1817080]
- number of coughs per 24 hours [3]: a reduction in the number of coughs per 24 hours was confirmed

Compound: COc1cc(C(C)C)c(Oc2cnc(N)nc2N)cc1I [AF-353]
- action potential in nerve fibers of the ganglion inferius evoked by ATP or αβ-methylene ATP [4]: almost completely suppressed

Compound: TNP-ATP
- action potential in nerve fibers of the ganglion inferius evoked by ATP or αβ-methylene ATP [4]: almost completely suppressed

Compound: COc1cc(C(C)C)c(Oc2cnc(N)nc2N)cc1S(N)(=O)=O [Gefapixant]
- Difference of incidence of any of the taste-related adverse events (drug − placebo) [5]: 74.6%
- dysgeusia as adverse event ([6]; 7.5 mg twice daily, 6 out of 63 cases): 9.52%
- dysgeusia as adverse event ([6]; 20 mg twice daily, 21 out of 63 cases): 33.33%
- dysgeusia as adverse event ([6]; 50 mg twice daily, 30 out of 63 cases): 47.62%
- Ageusia, number of subjects and incidence [6, 8]: 13 (20.6%)
- Any of taste-related adverse events, number of subjects and incidence [6, 8]: 51 (81.0%)
- Dysgeusia, number of subjects and incidence [6, 8]: 30 (47.6%)
- Hypogeusia, number of subjects and incidence [6, 8]: 15 (23.8%)
- hypogeusia as adverse event ([7]; 13 out of 24 cases): 54%
- dysgeusia as adverse event ([7]; 21 out of 24 cases): 88%
- participants who discontinued the trial due to a taste disturbance (hypogeusia or dysgeusia) ([7]; human, in vivo): 6
- taste-related disorder ([7]; patients administered with AF-219): all patients developed some kind of taste-related disorder
- reduction of the frequency of daytime cough compared to the placebo group ([7]; patients with chronic cough): 75%
